Test results: US10064858B2, “Methods and compositions for treating bacterial infections with iron chelators” (THE UNITED STATES OF AMERICA, AS REPRESENTED BY THE …, priority 2011, dated 2018)
Entries after “also recorded” stand apart in the source; their conditions may differ. Read-outs that look alike come from different tables or passages of the source.

How the values were obtained:
[1] = system: KP ndm; assay: Checkerboard assay, chelator with antibiotic (FIC); type: cell-based, K. pneumonia
Excerpt: (§1) Drug interactions were initially evaluated with the “checkerboard” microdilution design, which provided a matrix of all drug combinations assayed in terms of fractions of the previously determined MIC. The checkerboard microdilution design is described in R. J. Tallarida, “Drug Synergism: Its Detection and Applications,” Journal of Pharmacology and Experimental Therapeutics, 865-872 (2001); and in R. L. White, et al., (1996), supra. FIGS. 39A and 39B show the wellplates having different concentrations of iron chelator and antibiotic, as labeled along the x-axis and y-axis.
(§2) The checkerboard assay was used to asses other combinations of iron chelators and antibiotics. The fractional inhibitory concentration index (FIC), which was calculated as follows: FIC=(MIC A in combination/MIC A)+(MIC B in combination/MIC B). Interaction was defined as synergistic if the FIC was <1.0, preferably <0.5, no interaction if the FIC was >1.0 and <4.0, and antagonistic if the FIC was >4.0.
(§3) The assay was run against the multi-drug resistant bacterial species AB 19606, AB 17978, KP ndm, PA PAO1, PA 27853, EC 35718, and EC 43888. Blank spaces indicate concentrations not tested. […] Against the species PA PAO1 and PA 27853, all the antibiotics except for Ami.

[2] = system: AB5075, a stain of A. baumannii (Ab); assay: Development of rifampin resistance over 7 days (OD600); type: cell-based; conditions: ApoL1 in combination with rifampin; 7 days
Protocol: Development of antibiotic-resistant strains is an ongoing problem in the treatment of bacterial infections. In some embodiments, the present technology provides methods and compositions for reducing, inhibiting or preventing formation of antibiotic-resistant bacterial strains. In some embodiments, the iron chelator of the present technology is administered to a patient as a prophylactic before antibiotic treatment or during antibiotic treatment. In some embodiments, the iron chelator is added concurrently with an antibiotic.
Cultures of AB5075, a stain of A. baumannii (Ab), was cultured in the presence of Rifampin alone, the iron chelator ApoL1 alone or Rifampin combination with ApoL1 for 7 days.

[3] = system: PA PAO1, PA 27853; assay: Checkerboard assay, chelator with antibiotic (FIC); type: cell-based, P. aeruginosa
Excerpt: as §1, §2, §3

[4] = system: Escherichia coli; assay: Growth (OD600) with VK28 in M9 media with magnesium / calcium; type: cell-based; conditions: 24 hours
Protocol: Escherichia coli was grown similar to as described in Example 19 in M9 media containing 2 mM MgSO4 for 24 hours in the presence of 0 μg/ml, 50 μg/ml, 100 μg/ml, or 200 μg/ml VK28. The OD600 was measured at 0, 4, and 24 hour and the results are shown in the time-kill curves of FIG. 18.
In this example, strains of MR Staphylococcus aureus (MRSA), Acinetobacter baumannii (Acinetobacter), Escherichia coli (E. coli), and Pseudomonas aeruginosa (Pseudomonas) were grown in M9 media in the presence of 2 mM MgSO4 and 1.35 mM CaCl2 for 24 hours in the presence or absence of 0 μg/ml, 50 μg/ml, 100 μg/ml, or 200 μg/ml of VK28. The OD600 was measured at 24 hour and the results are shown in the bar graph of FIG. 21.

[5] = system: S. aureus; assay: MIC in RPMI1640 media (Table 2); type: cell-based; conditions: Staphylococcus aureus
Protocol: Individual MICs were determined following the microdilution method recommended by CLSI in cationic-adjusted Mueller-Hinton Broth (CAMHB), or M9 media. […] Tests were performed in triplicate. MIC of iron chelators were determined for noscomial ESKAPE pathogens.
This media is closer to the iron levels in the human body. MICs are in ug/mL.

[6] = system: AB5711; assay: Effect of VK28 on the activity of antibiotics (OD600); type: cell-based, A. baumannii; conditions: 50 μM VK28; 30 antibiotics
Protocol: In some aspects of the present invention, one or more iron chelators (for example Compound 4, VK28, or its analogs or derivatives, or Apo6619) may be used in a composition or method for treating a bacterial infection with one or more antibiotics. […] Methods and compositions comprising one or more iron chelators with one or more of each of the foregoing antibiotics are hereby disclosed.
In this example, culture of AB5711 was grown overnight in LB media at 37° C. and diluted 1:100 into Media A. Cells were allowed to grow for 4 hours at 37 in 96-well plates and were then treated with antibiotics with or without 50 μM VK28. Cells were then allowed to shake for an additional 20 hours, and OD600 measurements were taken.

[7] = system: A. baumannii; assay: Growth (OD600) with VK28 added at different times post-inoculation; type: cell-based; conditions: 200 μM VK28 added at 0, 4, 8, 12, 16, 20 hr post-inoculation; low-iron M9
Protocol: A. baumannii was grown in low-iron M9 media and challenged with 200 μM VK28 at 0 hr (▪), 4 hr (▴), 8 hr (▪), 12 hr (▪), 16 hr (•), and 20 hr (▪) post-inoculation. Growth was estimated by absorbance at 600 nm every 4 hr for 24 hr.

[8] = Maximum systemic dose without adverse side-effects, extrapolated; conditions: human; systemic delivery; based on mouse and rat results
Protocol: The iron chelator is employed in an amount effective for the treatment and/or prevention of bacterial infection. The effective dosage seen in vitro is up to 2 mM based on molarity or up to 1 mg/mL. 2 mM or 1 mg/mL is an extremely high dosage for translating into in vivo. Previous experiments by Varinel Inc. have shown toxicity with VK28 at 30 mg/kg in a mouse or 70 mg/kg in a rat when delivered systemically/intravenously. […] Higher doses are suitable for topical administration. The iron chelator can present in an amount that is up to about 10% by weight, alternatively up to about 20% by weight of the topical composition. In some embodiments, the topical composition can comprise about 0.1% to about 20% of at least one iron chelator, alternatively about 1% to about 20%, alternatively about 5% to about 20%, alternatively about 5% to about 10%, and include, but are not limited to, for example, about 1%, about 2%, about 3%, about 4%, about 5%, about 6%, about 7%, about 8%, about 9%, about 10%, about 12%, about 15%, about 20%, and includes percentages and ranges there between and in increments of about 0.1%, about 0.25%, about 0.5%, about 1% and the like. Determination of an effective amount of VK28, or derivative thereof, to employ is well within the skill of one having ordinary skill in the art having knowledge of the teachings set forth herein.

In the case of `Cc1c(O)c(=O)ccn1C` [ApoL1, 3-hydroxy-1,2-dimethyl-4(1H)-pyridone], the FIC ([1]; in combination with Colisitin) is reported as 1.25, the FIC ([1]; in combination with Rifampin) is reported as 0.75 and the “growth of rifampin-resistant strains” value [2] is reported as “inhibits growth of an antibiotic resistant Ab strain over 7 days; also recorded: inhibition of rifampin-resistant strains of Ab over the 7 days”. The FIC ([3]; PA 27853, in combination with Amikacin) was 1.25, the FIC ([3]; PA 27853, in combination with Cefotaxine) was 0.75 and the FIC ([3]; PA 27853, in combination with Colisitin) was 0.75. The FIC ([3]; PA 27853, in combination with Doxycycline) was 0.75, the FIC ([3]; PA 27853, in combination with Rifampin) was 0.75 and the FIC ([3]; PA PAO1, in combination with Cefotaxine) was 0.75. The FIC ([3]; PA PAO1, in combination with Colisitin) was 0.75, the FIC ([3]; PA PAO1, in combination with Doxycycline) was 0.75 and the FIC ([3]; PA PAO1, in combination with Rifampin) was 0.75.
For `OCCN1CCN(Cc2ccc(O)c3ncccc23)CC1` [VK28, 5-(4-(2-hydroxyethyl)piperazin-1-ylmethyl)-8-hydroxyquinoline], the “inhibition of growth (OD600)” value ([4]; M9 with 2 mM MgSO4, 50-200 μg/ml VK28) was “inhibition of growth of E. coli is not reduced in the presence of magnesium and calcium”, the “inhibition of growth (OD600)” value ([4]; M9 with 2 mM MgSO4 and 1.35 mM CaCl2) was “inhibition of growth of a number of strains of bacteria is not reduced in the presence of magnesium and calcium” and the MIC ([5]; ATCC25923, ATCC 25923, read-out: MIC of Iron Chelators) was 32 µg/mL. The MIC ([5]; ATCC 43300 (MRSA), read-out: MIC of Iron Chelators) was 16 µg/mL, the “inhibition of the activity of antibiotics by VK28” value [6] was “only inhibited the activity of one antibiotic, namely thiamphenicol; also recorded: not shown to inhibit the activity of the antibiotics with the exception of Thiaphenicol” and the “continued multiplication of bacteria (OD600)” value [7] was “effective to halt the continued multiplication of bacteria”. For the same compound, the “maximum dose without adverse side-effects” value [8] was “approximately 60 mg/kg”.
